target: T1, recombinant His-tag Y220C p53 DBD protein (Homo sapiens, UniProt P04637, Y220C); assay: In vitro DNA binding activity assay (TR-FRET): binding of His-tag Y220C p53 DBD to biotin-labeled consensus DNA; assay type: biochemical; settings: SC150 = concentration to increase DNA binding by […], His-tag Y220C p53 DBD, biotin-labeled consensus DNA
T1 construct: recombinant His-tag Y220C p53 DBD protein (amino acids #˜94-312)

| Structure (SMILES) | Y220C SC150 (μM) |
| --- | --- |
| CCN1CC[C@@H](Nc2cccc3c2cc(-c2noc(CNC(=O)c4ccn(CCF)c4)n2)n3CC(F)(F)F)[C@@H](F)C1 [Compound 293B, N-{[3-(4-{[(3S,4R)-1-ethyl-3-fluoropiperidin-4-yl]amino}-1-(2,2,2-trifluoroethyl)-1H-indol-2-yl)-1,2,4-oxadiazol-5-yl]methyl}-1-(2-fluoroethyl)-1H-pyrrole-3-carboxamide] | * (* = 0 μM ≤ SC150 < 0.1 μM) |
| CN1CC[C@@H](Nc2cccc3c2cc(-c2noc(CNC(=O)c4cnc(C(C)(C)C)o4)n2)n3CC(F)(F)F)[C@@H](F)C1 [Compound 443B, 2-tert-butyl-N-{[3-(4-{[(3S,4R)-3-fluoro-1-methylpiperidin-4-yl]amino}-1-(2,2,2-trifluoroethyl)-1H-indol-2-yl)-1,2,4-oxadiazol-5-yl]methyl}-1,3-oxazole-5-carboxamide] | * (* = 0 μM ≤ SC150 < 0.1 μM) |
| CC(C)(C)n1ccc(C(=O)NCc2nc(-c3cc4c(N[C@H]5CCOC[C@H]5F)cccc4n3CC(F)(F)F)no2)c1 [Compound 492B, 1-tert-butyl-N-{[3-(4-{[(3S,4S)-3-fluorooxan-4-yl]amino}-1-(2,2,2-trifluoroethyl)-1H-indol-2-yl)-1,2,4-oxadiazol-5-yl]methyl}-1H-pyrrole-3-carboxamide] | * (* = 0 μM ≤ SC150 < 0.1 μM) |
| CCN1CC[C@@H](Nc2cccc3c2cc(-c2noc(CNC(=O)c4ccn(CCOC)c4)n2)n3CC(F)(F)F)[C@@H](F)C1 [Compound 272B, N-{[3-(4-{[(3S,4R)-1-ethyl-3-fluoropiperidin-4-yl]amino}-1-(2,2,2-trifluoroethyl)-1H-indol-2-yl)-1,2,4-oxadiazol-5-yl]methyl}-1-(2-methoxyethyl)-1H-pyrrole-3-carboxamide] | * (* = 0 μM ≤ SC150 < 0.1 μM) |
| CN1CC[C@@H](Nc2cccc3c2cc(-c2noc(CNC(=O)c4cn(C)nn4)n2)n3CC(F)(F)F)[C@@H](F)C1 [Compound 236B, N-{[3-(4-{[(3S,4R)-3-fluoro-1-methylpiperidin-4-yl]amino}-1-(2,2,2-trifluoroethyl)-1H-indol-2-yl)-1,2,4-oxadiazol-5-yl]methyl}-1-methyl-1H-1,2,3-triazole-4-carboxamide] | * (* = 0 μM ≤ SC150 < 0.1 μM) |
| Cc1c(C(=O)NCc2nc(-c3cc4c(N[C@@H]5CCN(C)C[C@@H]5F)cccc4n3CC(F)(F)F)no2)cnn1C(C)(C)C [Compound 322B, 1-tert-butyl-N-{[3-(4-{[(3S,4R)-3-fluoro-1-methylpiperidin-4-yl]amino}-1-(2,2,2-trifluoroethyl)-1H-indol-2-yl)-1,2,4-oxadiazol-5-yl]methyl}-5-methyl-1H-pyrazole-4-carboxamide] | * (* = 0 μM ≤ SC150 < 0.1 μM) |
| CN1CC[C@@H](Nc2cccc3c2cc(-c2noc(CNC(=O)c4cnn(C5CCOCC5)c4)n2)n3CC(F)(F)F)[C@@H](F)C1 [Compound 325B, N-{[3-(4-{[(3S,4R)-3-fluoro-1-methylpiperidin-4-yl]amino}-1-(2,2,2-trifluoroethyl)-1H-indol-2-yl)-1,2,4-oxadiazol-5-yl]methyl}-1-(oxan-4-yl)-1H-pyrazole-4-carboxamide] | * (* = 0 μM ≤ SC150 < 0.1 μM) |
| CN1CC[C@@H](Nc2cccc3c2cc(-c2noc(CNC(=O)c4ccccn4)n2)n3CC(F)(F)F)[C@@H](F)C1 [Compound 201B, N-{[3-(4-{[(3S,4R)-3-fluoro-1-methylpiperidin-4-yl]amino}-1-(2,2,2-trifluoroethyl)-1H-indol-2-yl)-1,2,4-oxadiazol-5-yl]methyl}pyridine-2-carboxamide] | * (* = 0 μM ≤ SC150 < 0.1 μM) |
| CC(C)(C)n1ccc(C(=O)NCc2nc(-c3cc4c(NC5CCn6ccnc6C5)cccc4n3CC(F)(F)F)no2)c1 (stereo not shown) [Compound 366B, 1-tert-butyl-N-({3-[4-({5H,6H, 7H,8H-imidazo[1,2-a]pyridin-7-yl}amino)-1-(2,2,2-trifluoroethyl)-1H-indol-2-yl]-1,2,4-oxadiazol-5-yl}methyl)-1H-pyrrole-3-carboxamide] | * (* = 0 μM ≤ SC150 < 0.1 μM) |
| COC(C)Cn1ccc(C(=O)NCc2nc(-c3cc4c(N[C@@H]5CCN(C)C[C@@H]5F)cccc4n3CC(F)(F)F)no2)c1 (stereo partly drawn) [Compound 253B, N-{[3-(4-{[(3S,4R)-3-fluoro-1-methylpiperidin-4-yl]amino}-1-(2,2,2-trifluoroethyl)-1H-indol-2-yl)-1,2,4-oxadiazol-5-yl]methyl}-1-(2-methoxypropyl)-1H-pyrrole-3-carboxamide] | * (* = 0 μM ≤ SC150 < 0.1 μM) |
| CC(C)(C)n1ccc(C(=O)NCc2nc(-c3cc4c(NC5CCn6nccc6C5)cccc4n3CC(F)(F)F)no2)c1 (stereo not shown) [Compound 332B, 1-tert-butyl-N-({3-[4-({4H,5H,6H,7H-pyrazolo[1,5-a]pyridin-5-yl}amino)-1-(2,2,2-trifluoroethyl)-1H-indol-2-yl]-1,2,4-oxadiazol-5-yl}methyl)-1H-pyrrole-3-carboxamide] | * (* = 0 μM ≤ SC150 < 0.1 μM) |
| COC[C@@H]1CCCN1c1nc(C(=O)NCc2nc(-c3cc4c(N[C@@H]5CCN(C)C[C@@H]5F)cccc4n3CC(F)(F)F)no2)cs1 [Compound 519B, N-{[3-(4-{[(3S,4R)-3-fluoro-1-methylpiperidin-4-yl]amino}-1-(2,2,2-trifluoroethyl)-1H-indol-2-yl)-1,2,4-oxadiazol-5-yl]methyl}-2-[(2S)-2-(methoxymethyl)pyrrolidin-1-yl]-1,3-thiazole-4-carboxamide] | * (* = 0 μM ≤ SC150 < 0.1 μM) |
| CO[C@]1(C)CC[C@H](n2ccc(C(=O)NCc3nc(-c4cc5c(N[C@@H]6CCN(C)C[C@@H]6F)cccc5n4CC(F)(F)F)no3)c2)C1 (racemic) [Compound 387B, cis-N-{[3-(4-{[(3S,4R)-3-fluoro-1-methylpiperidin-4-yl]amino}-1-(2,2,2-trifluoroethyl)-1H-indol-2-yl)-1,2,4-oxadiazol-5-yl]methyl}-1-[(1R,3S)-3-methoxy-3-methylcyclopentyl]-1H-pyrrole-3-carboxamide] | * (* = 0 μM ≤ SC150 < 0.1 μM) |
| CN1CCC(Nc2cccc3c2cc(-c2nnc(CNC(=O)C4CC4c4cccs4)s2)n3CC(F)(F)F)CC1 (stereo not shown) [Compound 79B, N-[(5-{4-[(1-methylpiperidin-4-yl)amino]-1-(2,2,2-trifluoroethyl)-1H-indol-2-yl}-1,3,4-thiadiazol-2-yl)methyl]-2-(thiophen-2-yl)cyclopropane-1-carboxamide] | * (* = 0 μM ≤ SC150 < 0.1 μM) |
| CC(=O)NCc1nnc(-c2cc3c(NC4CCN(C)CC4)cccc3n2CC(F)(F)F)s1 [Compound 58B, N-[(5-{4-[(1-methylpiperidin-4-yl)amino]-1-(2,2,2-trifluoroethyl)-1H-indol-2-yl}-1,3,4-thiadiazol-2-yl)methyl]acetamide] | ** (** = 0.1 μM ≤ SC150 < 0.5 μM) |
| CN1CC[C@@H](Nc2cccc3c2cc(-c2cc(CNC(=O)c4ccn(C(C)(C)C)c4)cs2)n3CC(F)(F)F)[C@@H](F)C1 [Compound 283B, 1-tert-butyl-N-{[5-(4-{[(3S,4R)-3-fluoro-1-methylpiperidin-4-yl]amino}-1-(2,2,2-trifluoroethyl)-1H-indol-2-yl)thiophen-3-yl]methyl}-1H-pyrrole-3-carboxamide] | ** (** = 0.1 μM ≤ SC150 < 0.5 μM) |
| CN1CC[C@@H](Nc2cccc3c2cc(-c2noc(CNC(=O)C4CC4)n2)n3CC(F)(F)F)[C@@H](F)C1 [Compound 173B, N-{[3-(4-{[(3S,4R)-3-fluoro-1-methylpiperidin-4-yl]amino}-1-(2,2,2-trifluoroethyl)-1H-indol-2-yl)-1,2,4-oxadiazol-5-yl]methyl}cyclopropanecarboxamide] | * (* = 0 μM ≤ SC150 < 0.1 μM) |
| CC(C)Cn1ccc(C(=O)NCc2nc(-c3cc4c(N[C@@H]5CCN(C)C[C@@H]5F)cccc4n3CC(F)(F)F)no2)c1 [Compound 240B, N-{[3-(4-{[(3S,4R)-3-fluoro-1-methylpiperidin-4-yl]amino}-1-(2,2,2-trifluoroethyl)-1H-indol-2-yl)-1,2,4-oxadiazol-5-yl]methyl}-1-(2-methylpropyl)-1H-pyrrole-3-carboxamide] | * (* = 0 μM ≤ SC150 < 0.1 μM) |
| CCN1CC[C@@H](Nc2cccc3c2cc(-c2noc(CNC(=O)c4ccn(C5CCCC5)c4)n2)n3CC(F)(F)F)[C@@H](F)C1 [Compound 320B, 1-cyclopentyl-N-{[3-(4-{[(3S,4R)-1-ethyl-3-fluoropiperidin-4-yl]amino}-1-(2,2,2-trifluoroethyl)-1H-indol-2-yl)-1,2,4-oxadiazol-5-yl]methyl}-1H-pyrrole-3-carboxamide] | * (* = 0 μM ≤ SC150 < 0.1 μM) |
| CC(C)(C)N1CC[C@@H](Nc2cccc3c2cc(-c2noc(CNC(=O)c4cnn(C(C)(C)C)c4)n2)n3CC(F)(F)F)[C@H](F)C1 [Compound 402B, 1-tert-butyl-N-{[3-(4-{[(3R,4R)-1-tert-butyl-3-fluoropiperidin-4-yl]amino}-1-(2,2,2-trifluoroethyl)-1H-indol-2-yl)-1,2,4-oxadiazol-5-yl]methyl}-1H-pyrazole-4-carboxamide] | * (* = 0 μM ≤ SC150 < 0.1 μM) |
| CC[C@@H]1C[C@H]1C(=O)NCc1nc(-c2cc3c(N[C@@H]4CCN(C)C[C@@H]4F)cccc3n2CC(F)(F)F)no1 [Compound 269B, (1R,2R)-2-ethyl-N-{[3-(4-{[(3S,4R)-3-fluoro-1-methylpiperidin-4-yl]amino}-1-(2,2,2-trifluoroethyl)-1H-indol-2-yl)-1,2,4-oxadiazol-5-yl]methyl}cyclopropane-1-carboxamide] | * (* = 0 μM ≤ SC150 < 0.1 μM) |
| CN1CCC(Nc2cccc3c2cc(-c2nc(CNC(=O)C4CC4)no2)n3CC(F)(F)F)CC1 [Compound 137B, N-[(5-{4-[(1-methylpiperidin-4-yl)amino]-1-(2,2,2-trifluoroethyl)-1H-indol-2-yl}-1,2,4-oxadiazol-3-yl)methyl]cyclopropanecarboxamide] | ** (** = 0.1 μM ≤ SC150 < 0.5 μM) |

Reference: patent US11807644B2 (PMV Pharmaceuticals, Inc., priority 2020, dated 2023)
